Reference: ChEMBL document CHEMBL4507285, “Data for DCP probe MRL-SYKi” (2021)

Columns and labels:
[1] = test system: Tyrosine-protein kinase ABL1 (Homo sapiens), P00519 [H396P]; conditions: Compound concentration 100.0 nM
[2] = target: Activin receptor type-1 (Homo sapiens) (UniProt Q04771); conditions: Compound concentration 100.0 nM
[3] = target: Activin receptor type-1-like (Homo sapiens) (UniProt P37023); conditions: Compound concentration 100.0 nM
[4] = target: RAC-gamma serine/threonine-protein kinase (Homo sapiens) (UniProt Q9Y243); conditions: Compound concentration 100.0 nM
[5] = test system: ALK tyrosine kinase receptor (Homo sapiens), Q9UM73 [L1196M]; conditions: Compound concentration 100.0 nM
[6] = target: Aurora kinase C (Homo sapiens) (UniProt Q9UQB9); conditions: Compound concentration 100.0 nM
[7] = target: Tyrosine-protein kinase BTK (Homo sapiens) (UniProt Q06187); conditions: Compound concentration 100.0 nM
[8] = target: Calcium/calmodulin-dependent protein kinase type 1G (Homo sapiens) (UniProt Q96NX5); conditions: Compound concentration 100.0 nM
[9] = target: Cyclin-dependent kinase 7 (Homo sapiens) (UniProt P50613); conditions: Compound concentration 100.0 nM
[10] = target: Serine/threonine-protein kinase Chk2 (Homo sapiens) (UniProt O96017); conditions: Compound concentration 100.0 nM
[11] = target: Macrophage colony-stimulating factor 1 receptor (Homo sapiens) (UniProt P07333); conditions: Compound concentration 100.0 nM
[12] = target: Casein kinase II subunit alpha' (Homo sapiens) (UniProt P19784); conditions: Compound concentration 100.0 nM
[13] = target: Death-associated protein kinase 1 (Homo sapiens) (UniProt P53355); conditions: Compound concentration 100.0 nM
[14] = test system: Epidermal growth factor receptor (Homo sapiens), P00533 [T790M]; conditions: Compound concentration 100.0 nM
[15] = target: Ephrin type-A receptor 7 (Homo sapiens) (UniProt Q15375); conditions: Compound concentration 100.0 nM
[16] = target: Ephrin type-B receptor 3 (Homo sapiens) (UniProt P54753); conditions: Compound concentration 100.0 nM
[17] = target: Tyrosine-protein kinase Fer (Homo sapiens, UniProt P16591); conditions: Compound concentration 100.0 nM
[18] = target: Fibroblast growth factor receptor 1 (Homo sapiens) (UniProt P11362); conditions: Compound concentration 100.0 nM
[19] = target: Cyclin-G-associated kinase (Homo sapiens) (UniProt O14976); conditions: Compound concentration 100.0 nM
[20] = target: G protein-coupled receptor kinase 3 (Homo sapiens) (UniProt P35626); conditions: Compound concentration 100.0 nM
[21] = target: Hormonally up-regulated neu tumor-associated kinase (Homo sapiens) (UniProt P57058); conditions: Compound concentration 100.0 nM
[22] = target: Interleukin-1 receptor-associated kinase 1 (Homo sapiens) (UniProt P51617); conditions: Compound concentration 100.0 nM
[23] = target: Mitogen-activated protein kinase kinase kinase 2 (Homo sapiens) (UniProt Q9Y2U5); conditions: Compound concentration 100.0 nM
[24] = target: Mitogen-activated protein kinase kinase kinase kinase 3 (Homo sapiens) (UniProt Q8IVH8); conditions: Compound concentration 100.0 nM
[25] = target: Serine/threonine-protein kinase 4 (Homo sapiens) (UniProt Q13043); conditions: Compound concentration 100.0 nM
[26] = target: Myosin light chain kinase family member 4 (Homo sapiens) (UniProt Q86YV6); conditions: Compound concentration 100.0 nM
[27] = target: Serine/threonine-protein kinase Nek11 (Homo sapiens) (UniProt Q8NG66); conditions: Compound concentration 100.0 nM
[28] = target: Serine/threonine-protein kinase PAK 4 (Homo sapiens) (UniProt O96013); conditions: Compound concentration 100.0 nM
[29] = target: Serine/threonine-protein kinase pim-1 (Homo sapiens) (UniProt P11309); conditions: Compound concentration 100.0 nM
[30] = target: Phosphatidylinositol 4-phosphate 5-kinase type-1 alpha (Homo sapiens) (UniProt Q99755); conditions: Compound concentration 100.0 nM
[31] = target: Serine/threonine-protein kinase PLK1 (Homo sapiens) (UniProt P53350); conditions: Compound concentration 100.0 nM
[32] = target: Protein kinase C eta type (Homo sapiens) (UniProt P24723); conditions: Compound concentration 100.0 nM
[33] = target: Protein kinase C iota type (Homo sapiens) (UniProt P41743); conditions: Compound concentration 100.0 nM
[34] = target: Protein kinase C theta type (Homo sapiens) (UniProt Q04759); conditions: Compound concentration 100.0 nM
[35] = target: Ribosomal protein S6 kinase alpha-5 (Homo sapiens) (UniProt O75582); conditions: Compound concentration 100.0 nM
[36] = target: Ribosomal protein S6 kinase alpha-6 (Homo sapiens) (UniProt Q9UK32); conditions: Compound concentration 100.0 nM
[37] = target: Serine/threonine-protein kinase SBK1 (Homo sapiens) (UniProt Q52WX2); conditions: Compound concentration 100.0 nM
[38] = target: Dual specificity testis-specific protein kinase 1 (Homo sapiens) (UniProt Q15569); conditions: Compound concentration 100.0 nM
[39] = target: BDNF/NT-3 growth factors receptor (Homo sapiens) (UniProt Q16620); conditions: Compound concentration 100.0 nM
[40] = target: Serine/threonine-protein kinase ULK1 (Homo sapiens) (UniProt O75385); conditions: Compound concentration 100.0 nM
[41] = target: Phosphatidylinositol 3-kinase catalytic subunit type 3 (Homo sapiens) (UniProt Q8NEB9); conditions: Compound concentration 100.0 nM
[42] = target: Tyrosine-protein kinase ZAP-70 (Homo sapiens) (UniProt P43403); conditions: Compound concentration 100.0 nM
[43] = target: D(3) dopamine receptor (Homo sapiens) (UniProt P35462); conditions: Compound concentration 10.0 uM
[44] = target: Delta-type opioid receptor (Homo sapiens) (UniProt P41143); conditions: Compound concentration 10.0 uM
[45] = target: Muscarinic acetylcholine receptor M4 (Homo sapiens) (UniProt P08173); conditions: Compound concentration 10.0 uM
[46] = target: Sigma intracellular receptor 2 (Homo sapiens) (UniProt Q5BJF2); conditions: Compound concentration 10.0 uM
Chain of Sigma intracellular receptor 2 (Homo sapiens) (Q5BJF2 whole entry): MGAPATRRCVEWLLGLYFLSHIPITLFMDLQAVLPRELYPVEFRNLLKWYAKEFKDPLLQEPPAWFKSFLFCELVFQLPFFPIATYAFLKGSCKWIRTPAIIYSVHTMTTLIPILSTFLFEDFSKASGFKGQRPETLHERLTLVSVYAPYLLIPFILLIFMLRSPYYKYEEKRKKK

Chain of Cyclin-G-associated kinase (Homo sapiens) (O14976 whole entry): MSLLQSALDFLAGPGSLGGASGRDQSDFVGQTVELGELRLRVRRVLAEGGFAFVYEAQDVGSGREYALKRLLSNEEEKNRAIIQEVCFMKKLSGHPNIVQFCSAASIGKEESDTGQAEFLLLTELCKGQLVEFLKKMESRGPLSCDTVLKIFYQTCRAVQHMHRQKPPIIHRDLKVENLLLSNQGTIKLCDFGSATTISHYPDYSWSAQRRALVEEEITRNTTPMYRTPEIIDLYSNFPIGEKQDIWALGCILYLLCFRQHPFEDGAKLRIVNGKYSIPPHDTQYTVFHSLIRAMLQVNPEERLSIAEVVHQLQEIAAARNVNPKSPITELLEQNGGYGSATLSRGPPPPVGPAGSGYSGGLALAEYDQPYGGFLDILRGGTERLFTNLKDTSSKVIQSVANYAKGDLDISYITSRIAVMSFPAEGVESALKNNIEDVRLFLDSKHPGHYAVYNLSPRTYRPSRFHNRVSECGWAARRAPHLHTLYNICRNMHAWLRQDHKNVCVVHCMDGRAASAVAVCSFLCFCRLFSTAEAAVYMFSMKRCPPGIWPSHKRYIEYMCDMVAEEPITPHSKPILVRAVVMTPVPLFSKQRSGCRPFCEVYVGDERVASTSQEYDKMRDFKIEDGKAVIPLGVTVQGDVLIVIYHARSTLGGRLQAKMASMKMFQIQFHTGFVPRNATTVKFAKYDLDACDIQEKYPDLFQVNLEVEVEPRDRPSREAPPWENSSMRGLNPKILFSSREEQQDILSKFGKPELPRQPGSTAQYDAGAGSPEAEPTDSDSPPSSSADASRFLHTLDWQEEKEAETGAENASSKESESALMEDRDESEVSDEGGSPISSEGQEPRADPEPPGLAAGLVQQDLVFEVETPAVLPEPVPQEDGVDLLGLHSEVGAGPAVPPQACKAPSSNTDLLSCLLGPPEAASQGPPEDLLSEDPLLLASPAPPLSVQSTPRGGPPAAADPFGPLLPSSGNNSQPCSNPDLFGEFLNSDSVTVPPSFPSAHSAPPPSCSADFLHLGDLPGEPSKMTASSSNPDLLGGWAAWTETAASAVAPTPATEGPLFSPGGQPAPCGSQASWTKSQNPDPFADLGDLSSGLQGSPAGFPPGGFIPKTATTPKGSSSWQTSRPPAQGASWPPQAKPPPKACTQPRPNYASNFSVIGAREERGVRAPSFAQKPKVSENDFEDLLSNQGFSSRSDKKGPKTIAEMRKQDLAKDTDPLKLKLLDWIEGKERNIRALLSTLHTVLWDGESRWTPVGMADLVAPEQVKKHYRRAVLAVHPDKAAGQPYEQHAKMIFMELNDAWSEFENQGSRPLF
Chain of Fibroblast growth factor receptor 1 (Homo sapiens) (P11362 22-822 limits assumed): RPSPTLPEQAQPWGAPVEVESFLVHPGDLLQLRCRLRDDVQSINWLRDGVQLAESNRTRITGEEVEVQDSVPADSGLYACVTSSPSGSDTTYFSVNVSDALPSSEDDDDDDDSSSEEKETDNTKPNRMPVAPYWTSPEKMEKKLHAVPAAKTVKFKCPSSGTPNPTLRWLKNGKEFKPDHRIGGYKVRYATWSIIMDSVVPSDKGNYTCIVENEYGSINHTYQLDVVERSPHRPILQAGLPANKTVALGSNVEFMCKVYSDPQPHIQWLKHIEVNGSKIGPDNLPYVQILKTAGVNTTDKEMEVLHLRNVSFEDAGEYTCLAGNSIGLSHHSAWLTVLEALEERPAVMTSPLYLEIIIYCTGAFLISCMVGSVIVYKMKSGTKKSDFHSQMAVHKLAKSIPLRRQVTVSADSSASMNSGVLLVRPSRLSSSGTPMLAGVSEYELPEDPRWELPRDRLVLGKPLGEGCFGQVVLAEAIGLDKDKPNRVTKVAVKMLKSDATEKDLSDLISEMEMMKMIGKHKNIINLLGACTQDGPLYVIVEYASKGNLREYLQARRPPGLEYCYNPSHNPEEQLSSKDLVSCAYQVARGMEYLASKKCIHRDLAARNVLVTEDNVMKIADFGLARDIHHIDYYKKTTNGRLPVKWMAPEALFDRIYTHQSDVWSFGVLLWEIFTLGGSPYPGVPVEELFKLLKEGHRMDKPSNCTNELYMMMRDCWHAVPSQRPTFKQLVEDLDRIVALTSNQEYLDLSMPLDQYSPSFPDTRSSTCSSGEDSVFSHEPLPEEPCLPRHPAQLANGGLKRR
Chain of Cyclin-dependent kinase 7 (Homo sapiens) (P50613 whole entry): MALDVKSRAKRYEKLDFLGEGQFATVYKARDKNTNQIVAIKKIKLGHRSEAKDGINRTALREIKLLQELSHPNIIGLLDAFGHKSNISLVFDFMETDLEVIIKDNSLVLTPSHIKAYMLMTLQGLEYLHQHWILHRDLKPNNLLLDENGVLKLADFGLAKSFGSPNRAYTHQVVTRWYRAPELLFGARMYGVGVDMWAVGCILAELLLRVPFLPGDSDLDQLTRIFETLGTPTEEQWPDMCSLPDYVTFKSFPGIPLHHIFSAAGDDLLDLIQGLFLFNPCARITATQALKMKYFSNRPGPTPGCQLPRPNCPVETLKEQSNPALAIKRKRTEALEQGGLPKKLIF
Chain of Activin receptor type-1-like (Homo sapiens) (P37023 whole entry): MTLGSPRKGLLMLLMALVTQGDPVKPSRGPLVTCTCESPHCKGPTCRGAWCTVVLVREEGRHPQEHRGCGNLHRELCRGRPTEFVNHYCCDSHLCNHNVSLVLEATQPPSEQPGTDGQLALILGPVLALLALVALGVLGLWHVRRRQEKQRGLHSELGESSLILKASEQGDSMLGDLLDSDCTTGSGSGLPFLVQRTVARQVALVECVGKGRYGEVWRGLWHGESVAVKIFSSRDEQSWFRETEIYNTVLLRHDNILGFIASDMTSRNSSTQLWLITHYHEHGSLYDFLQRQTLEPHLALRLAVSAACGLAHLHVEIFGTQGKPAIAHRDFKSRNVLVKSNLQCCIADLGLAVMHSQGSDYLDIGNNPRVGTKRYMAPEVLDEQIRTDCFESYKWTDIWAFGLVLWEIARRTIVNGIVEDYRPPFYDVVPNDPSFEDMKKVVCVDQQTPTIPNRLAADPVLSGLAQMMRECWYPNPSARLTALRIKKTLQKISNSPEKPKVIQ
Chain of Aurora kinase C (Homo sapiens) (Q9UQB9 whole entry): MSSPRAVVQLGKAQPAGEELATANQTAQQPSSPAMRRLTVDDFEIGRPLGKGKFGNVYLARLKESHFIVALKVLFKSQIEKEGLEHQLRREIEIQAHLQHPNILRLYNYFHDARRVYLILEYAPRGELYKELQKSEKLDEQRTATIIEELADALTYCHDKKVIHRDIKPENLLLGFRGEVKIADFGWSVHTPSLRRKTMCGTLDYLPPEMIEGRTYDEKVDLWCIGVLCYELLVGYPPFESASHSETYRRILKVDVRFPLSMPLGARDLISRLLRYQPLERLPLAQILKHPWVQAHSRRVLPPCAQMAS
Chain of G protein-coupled receptor kinase 3 (Homo sapiens) (P35626 whole entry): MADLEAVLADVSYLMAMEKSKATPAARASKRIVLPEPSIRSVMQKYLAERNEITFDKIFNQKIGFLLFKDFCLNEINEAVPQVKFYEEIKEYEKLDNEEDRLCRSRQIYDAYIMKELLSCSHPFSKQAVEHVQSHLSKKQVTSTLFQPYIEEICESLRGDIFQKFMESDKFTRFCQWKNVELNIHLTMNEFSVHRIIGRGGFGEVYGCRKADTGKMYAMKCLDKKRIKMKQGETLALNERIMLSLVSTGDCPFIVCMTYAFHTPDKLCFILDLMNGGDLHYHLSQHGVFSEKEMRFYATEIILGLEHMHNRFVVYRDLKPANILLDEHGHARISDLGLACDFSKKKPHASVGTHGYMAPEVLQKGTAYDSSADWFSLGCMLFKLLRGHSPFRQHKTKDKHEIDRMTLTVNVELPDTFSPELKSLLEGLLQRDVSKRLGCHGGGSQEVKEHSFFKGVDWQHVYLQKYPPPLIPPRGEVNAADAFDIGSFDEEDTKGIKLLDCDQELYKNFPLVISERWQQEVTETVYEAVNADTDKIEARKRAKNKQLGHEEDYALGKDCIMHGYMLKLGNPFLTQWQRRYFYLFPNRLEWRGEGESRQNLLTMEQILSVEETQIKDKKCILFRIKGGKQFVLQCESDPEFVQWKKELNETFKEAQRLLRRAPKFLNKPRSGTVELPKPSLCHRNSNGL
Chain of Casein kinase II subunit alpha' (Homo sapiens) (P19784 whole entry, looked up): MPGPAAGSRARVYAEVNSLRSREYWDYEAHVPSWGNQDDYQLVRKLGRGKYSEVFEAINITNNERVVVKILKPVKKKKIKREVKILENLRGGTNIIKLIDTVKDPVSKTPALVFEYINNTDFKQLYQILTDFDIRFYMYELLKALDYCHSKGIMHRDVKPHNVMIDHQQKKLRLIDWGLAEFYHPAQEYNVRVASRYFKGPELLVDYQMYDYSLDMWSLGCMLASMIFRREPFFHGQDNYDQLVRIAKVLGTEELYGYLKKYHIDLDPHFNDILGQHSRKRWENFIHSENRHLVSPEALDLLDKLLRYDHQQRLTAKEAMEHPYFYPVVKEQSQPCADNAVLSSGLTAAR
Chain of Serine/threonine-protein kinase SBK1 (Homo sapiens) (Q52WX2 whole entry): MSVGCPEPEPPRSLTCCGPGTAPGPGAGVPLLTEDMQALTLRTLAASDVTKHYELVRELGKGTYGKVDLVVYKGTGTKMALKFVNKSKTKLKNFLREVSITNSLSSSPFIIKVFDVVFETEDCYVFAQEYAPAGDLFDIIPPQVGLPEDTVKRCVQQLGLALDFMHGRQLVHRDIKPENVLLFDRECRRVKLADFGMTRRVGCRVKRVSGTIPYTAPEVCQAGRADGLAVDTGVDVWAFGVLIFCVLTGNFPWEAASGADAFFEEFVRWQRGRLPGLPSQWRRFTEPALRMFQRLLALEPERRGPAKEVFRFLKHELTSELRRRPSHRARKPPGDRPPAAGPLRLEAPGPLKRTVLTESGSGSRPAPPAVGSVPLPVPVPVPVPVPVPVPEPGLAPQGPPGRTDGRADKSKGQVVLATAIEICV

Cc1ccc(-c2cnc([C@@]3(O)CC[C@H](C(=O)O)C(C)(C)C3)s2)cc1Nc1cccc(C(F)(F)F)n1 [MRL-SYKi-NC] was tested, and the residual activity [1] was 95.4%, the residual activity [2] was 100% and the residual activity [3] was 100%. It also gave a residual activity [4] of 82.8%, a residual activity [5] of 100% and a residual activity [6] of 100%. It also gave a residual activity [7] of 86.1%, a residual activity [8] of 90.7% and a residual activity [9] of 86.2%. For the same compound, the residual activity [10] was 100%, the residual activity [11] was 84% and the residual activity [12] was 59.8%. For the same compound, the residual activity [13] was 100%, the residual activity [14] was 77.8% and the residual activity [15] was 94.2%. It also gave a residual activity [16] of 100%, a residual activity [17] of 95.4% and a residual activity [18] of 92.4%. It also gave a residual activity [19] of 100%, a residual activity [20] of 98.3% and a residual activity [21] of 96.2%. The residual activity [22] was 49.8%, the residual activity [23] was 100% and the residual activity [24] was 100%. It also gave a residual activity [25] of 69.1%, a residual activity [26] of 100% and a residual activity [27] of 93%. The residual activity [28] was 100%, the residual activity [29] was 100% and the residual activity [30] was 93%. For the same compound, the residual activity [31] was 20.2%, the residual activity [32] was 74.6% and the residual activity [33] was 96.2%. It also gave a residual activity [34] of 100%, a residual activity [35] of 100% and a residual activity [36] of 90.8%. The residual activity [37] was 51.1%, the residual activity [38] was 95.2% and the residual activity [39] was 67.2%. It also gave a residual activity [40] of 73.1%, a residual activity [41] of 67.2% and a residual activity [42] of 88.5%. For the same compound, the inhibition [43] was -8.44%, the inhibition [44] was 25.1% and the inhibition [45] was 20%. The inhibition [46] was 27.4%.
Work on Cc1cc(Nc2nccc(C)n2)cc(-c2cnc([C@@]3(O)CC[C@H](C(=O)O)C(C)(C)C3)s2)c1 [MRL-SYKi] yielded a residual activity [1] of 53.9%, a residual activity [2] of 59.3% and a residual activity [3] of 66.5%. For the same compound, the residual activity [4] was 100%, the residual activity [5] was 100% and the residual activity [6] was 100%. The residual activity [7] was 81.5%, the residual activity [8] was 100% and the residual activity [9] was 100%. The residual activity [10] was 100%, the residual activity [11] was 85.6% and the residual activity [12] was 100%. It also gave a residual activity [13] of 100%, a residual activity [14] of 91.6% and a residual activity [15] of 81.3%. The residual activity [16] was 100%, the residual activity [17] was 100% and the residual activity [18] was 82%. It also gave a residual activity [19] of 100%, a residual activity [20] of 73.7% and a residual activity [21] of 100%. For the same compound, the residual activity [22] was 80.7%, the residual activity [23] was 100% and the residual activity [24] was 100%. For the same compound, the residual activity [25] was 100%, the residual activity [26] was 100% and the residual activity [27] was 61.2%. The residual activity [28] was 89.8%, the residual activity [29] was 91.7% and the residual activity [30] was 100%. The residual activity [31] was 100%, the residual activity [32] was 97.5% and the residual activity [33] was 77.3%. It also gave a residual activity [34] of 39.9%, a residual activity [35] of 100% and a residual activity [36] of 100%. For the same compound, the residual activity [37] was 100%, the residual activity [38] was 100% and the residual activity [39] was 60.3%. For the same compound, the residual activity [40] was 100%, the residual activity [41] was 99.6% and the residual activity [42] was 44.9%. For the same compound, the inhibition [43] was -5.53%, the inhibition [44] was 12.8% and the inhibition [45] was 16.7%. It also gave an inhibition [46] of 33.5%.
